# pKd: −log10 of the molar value.
# Molecular target: Serine/threonine-protein kinase B-raf (Homo sapiens, UniProt P15056)
# Test: Inhibition of BRAF
# Sequence of Serine/threonine-protein kinase B-raf (P15056 whole entry): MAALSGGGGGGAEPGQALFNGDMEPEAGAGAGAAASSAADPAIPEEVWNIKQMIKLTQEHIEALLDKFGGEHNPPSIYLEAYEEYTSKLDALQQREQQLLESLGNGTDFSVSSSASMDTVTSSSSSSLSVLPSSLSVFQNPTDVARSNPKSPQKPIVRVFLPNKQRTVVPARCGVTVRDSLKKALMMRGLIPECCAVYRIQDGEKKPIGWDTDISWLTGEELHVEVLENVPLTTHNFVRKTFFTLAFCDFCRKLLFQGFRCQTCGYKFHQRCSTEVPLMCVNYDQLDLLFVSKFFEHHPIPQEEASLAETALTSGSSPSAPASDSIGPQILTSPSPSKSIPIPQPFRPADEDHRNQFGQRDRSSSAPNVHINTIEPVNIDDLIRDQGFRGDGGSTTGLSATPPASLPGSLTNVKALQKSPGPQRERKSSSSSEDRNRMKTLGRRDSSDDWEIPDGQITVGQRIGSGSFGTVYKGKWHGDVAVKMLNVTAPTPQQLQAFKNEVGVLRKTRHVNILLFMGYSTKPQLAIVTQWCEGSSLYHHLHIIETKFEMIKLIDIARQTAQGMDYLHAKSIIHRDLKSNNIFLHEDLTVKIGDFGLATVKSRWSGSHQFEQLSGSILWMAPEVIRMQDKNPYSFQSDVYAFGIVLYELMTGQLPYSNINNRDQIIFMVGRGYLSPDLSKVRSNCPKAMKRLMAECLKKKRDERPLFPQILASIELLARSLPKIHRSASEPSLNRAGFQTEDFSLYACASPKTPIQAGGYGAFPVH
row,Structure (SMILES),pKd
1,Cc1ccc(/C=C/c2nc(N)nc(-c3ccccc3O)n2)o1,4.70
2,O=C1N/C(=N\c2ccc(O)cc2)S/C1=C\c1c[nH]c2ccccc12,4.73
3,Cc1ccc(CNC(=O)c2c(N)n(-c3cccc(O)c3)c3nc4ccccc4nc23)cc1,4.90

# These reach a higher pKd. Values come first.
row,pKd,Structure (SMILES)
1,5.68,NC(=O)c1ccc(Nc2nnc(-c3ccc(O)cc3)c3ccccc23)cc1
2,6.15,CCOC(=O)c1cccc(Nc2nc(N)nc3[nH]cnc23)c1

# — ChEMBL document CHEMBL1833808, “Identification of novel BRAF kinase inhibitors with structure-based virtual screening” (Bioorg Med Chem Lett, 2011)
